# Data from patent US10759779B2, “Crystalline form of orexin receptor antagonist, processes for preparation thereof and use thereof” (priority 2017, dated 2020).
# Key:
# Type in all cases: physicochemical
# [1] = Flowability (bulk/tapped density, compressibility index); settings: for Compressibility index: c=(ρf−ρ0)/ρf*100%; for Flowability: class by compressibility index
# Protocol: Compressibility, also known as compressibility index is usually used to evaluate the flowability of powder and granular intermediates during the formulation process. A certain amount of powder was added into a measuring cylinder and bulk volume was recorded. Then the measuring cylinder was tapped to make the powder in the tightest state and the tapped volume was recorded. The bulk density (ρ0), tapped density (ρf) were calculated, and compressibility index was calculated according to c=(ρf−ρ0)/ρf. Compressibility index or Carr Index is an important indicator for evaluating the flowability of powder.
# Compressibility index test method is as follows: Compressibility index was calculated according to bulk density ρ0 and tapped density ρf of Form CS2 and the amorphous solid of the prior art with c=(ρf−ρ0)/ρf*100%.
# [2] = Grinding stability of Form CS2; settings: ground manually for 5 minutes in a mortar, XRPD
# Protocol: Form CS2 was ground manually for 5 minutes in a mortar. The XRPD pattern of the solids before and after grinding are presented in FIG. 12 (top: XRPD pattern before grinding; bottom: XRPD pattern after grinding). […] Form CS2 has good grinding stability.
# [3] = Hygroscopicity by dynamic vapor sorption (DVS)
# Protocol: Thermo gravimetric analysis (TGA) data in the present disclosure were acquired by a TA Q500. The parameters of the TGA method of the present disclosure were as follows: • Heating rate: 10° C./min • Purge gas: nitrogen • Dynamic Vapor Sorption (DVS) is measured via a SMS (Surface Measurement Systems Ltd.) intrinsic DVS instrument. Typical Parameters for DVS test are as follows: • Temperature: 25° C. • Gas and flow rate: N2, 200 mL/min • dm/dt: 0.002%/min • RH range: 0% RH to 95% RH
# Dynamic vapor sorption (DVS) was applied to measure hygroscopicity of Form CS2 with about 10 mg of samples. The weight gains at each relative humidity were recorded in a cycle of 0-95%-0 RH. The XRPD pattern overlay of Form CS2 before and after DVS test is presented in FIG. 14 (top: XRPD pattern before DVS; bottom: XRPD pattern after DVS). […] The weight gain under 80% RH is 0.21%.
# [4] = Adhesiveness (material sticking to the punch); settings: 30 mg, φ8 mm round tooling, 10 KN, 30s
# Protocol: 30 mg of Form CS2 was weighed and added into the dies of φ8 mm round tooling, tableted at 10 KN and held for 30s. The amount of material sticking to the punch was weighed. The compression was repeated twice and the cumulative amount, maximum amount and average amount of material sticking to the punch during the compression process were recorded.
# [5] = Compressibility (tablet hardness, tensile strength)
# Protocol: 80 mg of Form CS2 was weighted and added into the dies of φ6 mm round tooling, compressed at 10 KN. The round tablet was stored in a desiccator for 24 hours until complete elastic recovery. Hardness (H) was tested with a tablet hardness tester. Diameter (D) and thickness (L) were tested with caliper. Tensile strength of the powder was calculated with the following formula: T=2H/πDL. Under a certain force, the greater the tensile strength, the better the compressibility.
# [6] = 80 mg tablet, φ6 mm, 10 KN, after 24 hours
Structure (SMILES),Bulk density (ρ0) [1],Tapped density (ρf) [1],Compressibility index [1],Flowability [1],Crystalline form after grinding [2],"Weight gain under 80% Relative Humidity ([3]; DVS, 25° C.)","Crystalline form after DVS ([3]; cycle of 0-95%-0 RH, XRPD)",Average amount of material sticking to the punch [4],Cumulative amount of material sticking to the punch [4],Maximum amount of material sticking to the punch [4],"Diameter [5, 6]","Hardness [5, 6]","Thickness [5, 6]",Tensile strength ([5]; T=2H/πDL)
"Cc1ncc(OC[C@@]2(c3cccc(F)c3)C[C@H]2C(=O)Nc2ccc(F)cn2)c(C)n1 [Amorphous solid, (1R,2S)-2-{[(2,4-dimethylpyrimidin-5-yl)oxy]methyl}-2-(3-fluorophenyl)-N-(5-fluoropyridin-2-yl)cyclopropanecarboxamide, reference compound]",0.196 g/mL,0.274 g/mL,28%,Poor,–,–,–,–,–,–,–,–,–,–
"Cc1ncc(OC[C@@]2(c3cccc(F)c3)C[C@H]2C(=O)Nc2ccc(F)cn2)c(C)n1 [Form CS2, (1R,2S)-2-{[(2,4-dimethylpyrimidin-5-yl)oxy]methyl}-2-(3-fluorophenyl)-N-(5-fluoropyridin-2-yl)cyclopropanecarboxamide]",0.263 g/mL,0.351 g/mL,25%,Passable (21-25),does not change after grinding,0.21%,does not change after DVS,0.22 mg,0.44 mg,0.74 mg,6.06 mm,8.4 N,2.40 mm,0.37 MPa
